Counter-ions that a name gives are not always drawn. Like-named read-outs stand apart in the source and are kept apart here.
Target: T1, MRP4 (Homo sapiens, UniProt O15439)
T1 sequence (O15439 1-1325): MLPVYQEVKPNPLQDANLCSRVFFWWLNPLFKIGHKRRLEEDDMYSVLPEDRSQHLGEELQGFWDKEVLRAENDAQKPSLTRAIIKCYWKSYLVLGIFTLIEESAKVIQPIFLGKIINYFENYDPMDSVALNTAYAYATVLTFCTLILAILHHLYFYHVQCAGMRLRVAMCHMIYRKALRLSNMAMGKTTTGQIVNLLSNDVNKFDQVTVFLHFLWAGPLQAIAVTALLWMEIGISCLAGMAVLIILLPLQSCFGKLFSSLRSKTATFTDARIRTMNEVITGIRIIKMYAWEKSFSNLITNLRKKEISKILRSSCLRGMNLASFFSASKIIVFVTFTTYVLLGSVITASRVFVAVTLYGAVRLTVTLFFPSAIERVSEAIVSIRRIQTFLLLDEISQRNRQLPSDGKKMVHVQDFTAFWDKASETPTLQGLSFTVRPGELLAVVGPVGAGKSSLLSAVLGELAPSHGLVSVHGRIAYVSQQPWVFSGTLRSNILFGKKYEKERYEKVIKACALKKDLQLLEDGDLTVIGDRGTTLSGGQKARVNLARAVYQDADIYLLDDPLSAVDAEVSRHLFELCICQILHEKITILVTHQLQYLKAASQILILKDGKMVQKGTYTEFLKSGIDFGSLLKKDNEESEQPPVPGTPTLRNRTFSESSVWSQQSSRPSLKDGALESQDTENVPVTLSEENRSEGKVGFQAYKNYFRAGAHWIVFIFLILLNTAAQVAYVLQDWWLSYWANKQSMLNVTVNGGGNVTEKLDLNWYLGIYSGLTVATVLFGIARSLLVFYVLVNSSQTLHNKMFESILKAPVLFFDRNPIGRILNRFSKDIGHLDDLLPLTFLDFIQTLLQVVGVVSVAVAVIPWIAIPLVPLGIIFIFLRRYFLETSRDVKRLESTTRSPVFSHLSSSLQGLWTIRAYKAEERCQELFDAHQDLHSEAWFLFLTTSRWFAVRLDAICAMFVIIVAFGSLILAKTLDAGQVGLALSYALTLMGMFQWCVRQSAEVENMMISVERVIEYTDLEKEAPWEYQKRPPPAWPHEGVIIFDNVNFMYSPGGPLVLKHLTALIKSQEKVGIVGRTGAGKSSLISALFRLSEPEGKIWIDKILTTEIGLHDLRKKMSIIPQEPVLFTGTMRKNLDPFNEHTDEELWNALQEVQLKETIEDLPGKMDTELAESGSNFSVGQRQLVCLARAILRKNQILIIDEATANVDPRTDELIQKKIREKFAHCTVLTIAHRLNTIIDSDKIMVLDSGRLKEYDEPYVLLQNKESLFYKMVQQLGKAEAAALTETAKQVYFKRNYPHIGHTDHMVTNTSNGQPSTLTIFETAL
Assay: Membrane vesicle transport inhibition assay: MRP4-mediated [3H]-MTX uptake
Details: for Effect on transport mediated by MRP4 / Decrease of MRP4-mediated transport compared to control: [3H]-MTX uptake; for Effect on transport mediated by MRP4: result in words; for Decrease of MRP4-mediated transport compared to control: toxin 1 mM; for IC20 at 10 min: human; for Mode of inhibition of MRP4-mediated transport: Dixon plot, three [3H]-MTX concentrations
Experimental: Human embryonic kidney (HEK293; purchased at American Type Culture Collection, Manassas, VA) cells were cultured in Dulbecco's modified Eagle's medium (Invitrogen life sciences, Breda, the Netherlands) containing 10% (v/v) fetal calf serum (MP Biomedicals, Uden, the Netherlands) at 37°C in a 5% (v/v) CO2 atmosphere. To functionally overexpress MRP4 and BCRP, HEK293 cells were transduced with baculoviruses of human MRP4, BCRP or enhanced yellow fluorescent protein (EYFP), generated via the Bac-to-Bac system (Invitrogen) as previously described. To transduce HEK293 cells, they were cultured in 500 cm^2 flasks until 70% confluence. Subsequently, medium was removed and 10 ml of virus and 25 ml of medium were added and incubated for 30 min at 37°C. Next, 50 ml of medium was added and after 2 h of transduction 5 mM sodium butyrate was added.
Three days after transduction, cells were harvested and pelleted by centrifugation (30 min at 4,000 x g). Afterwards, the cells were resuspended in ice-cold hypotonic TS buffer (0.5 mM sodium phosphate, 0.1 mM EDTA, pH 7.0) containing protease inhibitors (100 µM phenylmethylsulfonyl fluoride, 5 µg/ml aprotinin, 5 µg/ml leupeptin, 1 µg/ml pepstatin and 1 µg/ml E-64) and shaken for 30 min at 4°C. Cells were then centrifuged at 100,000 x g for 30 min at 4°C. […] Afterwards, supernatant was centrifuged at 100,000 x g for 1 h at 4°C. […] The protein content of samples was determined using the Bio-Rad protein assay (Veenendaal, the Netherlands), according to manufacturers recommendations. Vesicles were frozen in liquid nitrogen and stored at −80°C until use. The orientation of the membrane vesicles was not determined, since ATP-dependent uptake occurs only in inside-out vesicles.
A rapid filtration technique was used to study the uptake of [^3H]-MTX and [^3H]-E1S into MRP4 or BCRP membrane vesicles, as previously described. In short, 25 µl of TS buffer containing 4 mM ATP, 10 mM MgCl2 and radiolabeled substrate was added to 5 µl of the membrane vesicles (1.5 mg/ml). The transport assay was performed in the absence or presence of various concentrations of uremic toxins to evaluate the inhibitory effects of these compounds on MRP4-mediated [^3H]-MTX uptake and BCRP-mediated [^3H]-E1S uptake. […] Uptake was stopped by placing the samples on ice and the addition of 150 µl ice cold TS buffer. Subsequently, the samples were transferred to a 96 well filter plate (Millipore, Etten-leur, the Netherlands) pre-incubated with TS buffer and filtered using a Multiscreen HTS-Vacuum Manifold filtration device (Millipore). Afterwards, 2 ml of scintillation liquid was added to each filter and radioactivity was determined using liquid scintillation counting. As negative controls ATP was substituted for AMP and EYFP-membrane vesicles were used. Each experiment was performed in triplicates.
Differences between groups were considered to be statistically significant when p<0.05. The mean IC50 and IC20 values were calculated from the inhibition curves used for the Dixon analysis and to determine the inhibition constant (Ki) from the Dixon plots. Transport inhibition studies were performed in triplicate and repeated at least three times.

[1] = IC50 (concentration inhibiting 50% of transport by MRP4), MRP4-mediated [3H]-MTX uptake
[2] = IC50, [3H]-MTX uptake into MRP4 membrane vesicles, 10 min, 37°C, mean ± SEM of three experiments
[3] = membrane vesicles from HEK293 cells overexpressing MRP4, pH 7, probe [3H]-methotrexate ([3H]-MTX)

## O=C(O)C(=O)O [oxalate]
  Effect on transport mediated by MRP4: did not alter transport
  Decrease of MRP4-mediated transport compared to control: ≤ 10%

## Cc1ccc(S(=O)(=O)O)cc1 [p-toluenesulfonic acid, reference compound]
  Effect on transport mediated by MRP4: did not alter transport
  Decrease of MRP4-mediated transport compared to control: ≤ 10%

## NCCCCN [putrescine]
  Effect on transport mediated by MRP4: did not alter transport
  Decrease of MRP4-mediated transport compared to control: ≤ 10%

## O=C(O)Cc1ccccc1 [phenylacetic acid]
[1]
  IC50: 7000 µM
[2]
  IC50: 7100 ± 1600 µM
pH 7
  IC20 at 10 min: 1600 ± 170 µM

## O=C(O)Cc1c[nH]c2ccccc12 [indole-3-acetic acid]
  Ki: 2000 ± 70 µM
  Mode of inhibition of MRP4-mediated transport: non-competitive
[2]
  IC50: 1795 ± 8 µM
[3]
  IC20 at 10 min: 570 ± 30 µM

## O=C(O)CNC(=O)c1ccccc1 [hippuric acid]
  Ki: 2500 ± 50 µM
  Mode of inhibition of MRP4-mediated transport: non-competitive
[1]
  IC50: 2500 µM
[2]
  IC50: 990 ± 180 µM
[3]
  IC20 at 10 min: 350 ± 20 µM

## O=C(O)c1cc(=O)c2ccccc2[nH]1 [kynurenic acid]
  IC50: 8 ± 1 µM
  Ki: 25 ± 2 µM
[3]
  IC20 at 10 min: 1.5 ± 0.3 µM

## Cc1ccc(O)cc1 [p-cresol]
  Effect on transport mediated by MRP4: did not alter transport
  Decrease of MRP4-mediated transport compared to control: ≤ 10%

## O=C(O)c1cccnc1C(=O)O [quinolinic acid]
  Effect on transport mediated by MRP4: did not alter transport
  Decrease of MRP4-mediated transport compared to control: ≤ 10%

## O=S(=O)(O)Oc1c[nH]c2ccccc12 [indoxyl sulfate]
  IC50: 1750 ± 110 µM
  Ki: 1000 ± 90 µM
  Mode of inhibition of MRP4-mediated transport: non-competitive
[3]
  IC20 at 10 min: 530 ± 70 µM

Source: paper PMC3070735, “Uremic Toxins Inhibit Transport by Breast Cancer Resistance Protein and Multidrug Resistance Protein 4 at Clinically Relevant Concentrations” (PLoS ONE, 2011)
